Experiment: in vitro
Conditions: human, hela cells, % viability
O=C(NC1CCc2ccccc21)N1CCN(c2ccccc2)CC1 (stereo not drawn) [CBK155208] showed a viability at 28.5 h, 10 µM of 92.2%.
CCOC(=O)CCCNC(=O)N1CCN(c2ccccc2)CC1 [CBK155209] showed a viability at 28.5 h, 10 µM of 94.6%.
With CCOC(=O)N1CCC(NC(=O)N2CCN(c3ccccc3)CC2)CC1 [CBK155210] the viability at 28.5 h, 10 µM was 113%.
In the case of CCOC(=O)CCNC(=O)N(CC)Cc1ccccc1 [CBK155228], the viability at 28.5 h, 10 µM is reported as 88.7%.
For O=c1c(N2CCC(Sc3ccccc3)CC2)nccn1Cc1ccc(OC(F)(F)F)cc1 [CBK155257], the viability at 28.5 h, 10 µM was 94.7%.
For COc1ccc(C(=O)N2CCN(C)CC2)cc1Nc1cncc(-c2cc3ccccc3o2)n1 [CBK155266T], the viability at 28.5 h, 10 µM was 89.9%.
In the case of O=C(Nc1ccc2[nH]ccc2c1)N1CCc2ccccc2C1 [CBK155289], the viability at 28.5 h, 10 µM is reported as 84.5%.
NC(=O)c1ccc(NC(=O)N2CCc3ccccc3C2)cc1 [CBK155299] gave a viability at 28.5 h, 10 µM of 80.9%.
For CC(NC(=O)N1CCc2ccccc2C1)c1ccccc1 (stereo not drawn) [CBK155310], the viability at 28.5 h, 10 µM was 102%.
O=C(Nc1cccnc1)N1CCc2ccccc2C1 [CBK155312] gave a viability at 28.5 h, 10 µM of 100%.
COc1cc(CNC(=O)N(CCc2ccccc2)Cc2ccccc2)cc(OC)c1OC [CBK155329] showed a viability at 28.5 h, 10 µM of 110%.
In the case of CC(C)CNC(=O)N(CCc1ccccc1)Cc1ccccc1 [CBK155339], the viability at 28.5 h, 10 µM is reported as 93.8%.
For CC(C)CCNC(=O)N(CCc1ccccc1)Cc1ccccc1 [CBK155351], the viability at 28.5 h, 10 µM was 90.8%.
With CCOC(=O)N1CCC(NC(=O)N(CCc2ccccc2)Cc2ccccc2)CC1 [CBK155359] the viability at 28.5 h, 10 µM was 107%.
With COc1ccccc1N1CCN(C(=O)NCc2cnc(C)cn2)CC1 [CBK155367] the viability at 28.5 h, 10 µM was 105%.
With COc1ccccc1N1CCN(C(=O)NCCc2c[nH]cn2)CC1 [CBK155369] the viability at 28.5 h, 10 µM was 98.8%.
COc1cc(C(=O)N2CCC(n3c(=O)[nH]c4c(C)cccc43)CC2)ccc1C [CBK155372] showed a viability at 28.5 h, 10 µM of 94.2%.
COC(=O)C1CCN(Cc2ccc(-c3nnn(CC(=O)NCc4ccc(C)cc4)n3)cc2)C1 (stereo not drawn) [CBK155406T] showed a viability at 28.5 h, 10 µM of 105%.
Compound Cc1ccc(CNC(=O)Cn2nnc(-c3ccc(CN4CCC(S(C)(=O)=O)C4)cc3)n2)cc1 (stereo not drawn) [CBK155407T] has a viability at 28.5 h, 10 µM of 91.7%.
CCCS(=O)(=O)Nc1cccc(-c2nnn[nH]2)c1 [CBK155417] showed a viability at 28.5 h, 10 µM of 104%.
Compound O=[N+]([O-])c1ccccc1CS(=O)(=O)Nc1ccc(-c2nnn[nH]2)cc1 [CBK155430] has a viability at 28.5 h, 10 µM of 94.5%.
With O=C(Nc1cccc(C(=O)O)c1)Nc1cccc(-c2ccccc2)c1 [CBK155451G] the viability at 28.5 h, 10 µM was 93.5%.
Work on O=C(Nc1cccc(-c2nnn[nH]2)c1)Nc1ccc(Cl)c(Cl)c1 [CBK155454] yielded a viability at 28.5 h, 10 µM of 96.3%.
Compound O=C(Nc1cccc(C(=O)O)c1)Nc1ccc(Cl)c(Cl)c1 [CBK155455G] has a viability at 28.5 h, 10 µM of 88.7%.
With O=C(NCc1ccc(Cl)c(Cl)c1)Nc1cccc(C(=O)O)c1 [CBK155461G] the viability at 28.5 h, 10 µM was 109%.
With CCc1c(C)nc2ccccc2c1[S+]([O-])CCC(=O)OC (stereo not drawn) [CBK155467T] the viability at 28.5 h, 10 µM was 91.8%.
Work on CCc1c(C)nc2ccccc2c1S(=O)(=O)CCC(=O)OC [CBK155468T] yielded a viability at 28.5 h, 10 µM of 96.8%.
Work on O=C(Nc1ccc(Br)cc1)C1CCCN1S(=O)(=O)c1ccc(Cl)cc1 (stereo not drawn) [CBK155481] yielded a viability at 28.5 h, 10 µM of 88.4%.
With CCc1c(C)nc2ccccc2c1SCCOC(=O)Nc1cccc([N+](=O)[O-])c1 [CBK155545T] the viability at 28.5 h, 10 µM was 106%.
Compound COc1ccc(C)cc1S(=O)(=O)n1cc2c3c(cccc31)CN(C(=O)CN(C)C)C2 [CBK155549T] has a viability at 28.5 h, 10 µM of 93.3%.
O=S(=O)(Nc1ccc(-c2nnn[nH]2)cc1)c1c(Cl)cc(C(F)(F)F)cc1Cl [CBK155570] showed a viability at 28.5 h, 10 µM of 95.4%.
For CCCCOc1ccc(OC(=O)COCCOCCN2C(=O)c3ccccc3C2=O)cc1 [CBK155584], the viability at 28.5 h, 10 µM was 92.6%.
For COc1ccccc1N1CCN(C(=O)NCC2CCCCC2)CC1 [CBK155588], the viability at 28.5 h, 10 µM was 98.3%.
Compound COc1ccccc1N1CCN(C(=O)Nc2ccc(Cl)cc2)CC1 [CBK155597] has a viability at 28.5 h, 10 µM of 94.5%.
Work on COc1ccccc1N1CCN(C(=O)NCCC(C)C)CC1 [CBK155611] yielded a viability at 28.5 h, 10 µM of 94.5%.
Compound CSCCCNC(=O)N1CCN(Cc2ccccc2)CC1 [CBK155623] has a viability at 28.5 h, 10 µM of 89.9%.
In the case of O=C(NCc1ccc(Cl)c(Cl)c1)N1CCN(Cc2ccccc2)CC1 [CBK155624], the viability at 28.5 h, 10 µM is reported as 85.3%.
For Cc1cnc(CNC(=O)N2CCN(Cc3ccccc3)CC2)cn1 [CBK155627], the viability at 28.5 h, 10 µM was 99.3%.
In the case of O=C(NCc1cccc2ccccc12)N1CCN(Cc2ccccc2)CC1 [CBK155628], the viability at 28.5 h, 10 µM is reported as 92.2%.
For O=C(NCCc1c[nH]cn1)N1CCN(Cc2ccccc2)CC1 [CBK155629], the viability at 28.5 h, 10 µM was 96.4%.
Compound O=C(NC(c1ccccc1)c1ccccc1)N1CCN(Cc2ccccc2)CC1 [CBK155630] has a viability at 28.5 h, 10 µM of 86.3%.
In the case of N#Cc1ccc(CNC(=O)N2CCN(Cc3ccccc3)CC2)cc1 [CBK155637], the viability at 28.5 h, 10 µM is reported as 90.1%.
Work on CC(=O)Nc1cccc(NC(=O)N2CCN(Cc3ccccc3)CC2)c1 [CBK155643] yielded a viability at 28.5 h, 10 µM of 98%.
In the case of CC(C)CNC(=O)N1CCN(Cc2ccccc2)CC1 [CBK155644], the viability at 28.5 h, 10 µM is reported as 110%.
With CCN(CC)CCCNC(=O)N1CCN(Cc2ccccc2)CC1 [CBK155655] the viability at 28.5 h, 10 µM was 89.8%.
